{"source": "patent US6770660B2", "about": "“Method for inhibiting platelet aggregation” (Artery LLC, priority 2002, dated 2004)", "key": {"[1]": {"details": "for major bleeding episodes: patients", "description": "Patients were treated with a 20 μg/kg bolus of tirofiban hydrochloride followed by a 0.15 μg/kg/min infusion for 18-24 hours or a 25 μg/kg bolus followed by the same infusion. Enrollment of subjects in the panel with the 20 μg/kg bolus (n=15/panel) was completed and the clinical effects and pharmacodynamic properties were evaluated before subjects were enrolled in the panel with the 25 μg/kg bolus. Patients were treated with aspirin (325 mg before the procedure and daily) and unfractionated heparin (target activated clotting time 250 seconds). Clopidogrel (300 mg and then 75 mg daily)(commercially available as PLAVIX®) was administered at least 45 minutes after the start of tirofiban hydrochloride. All other medications were administered at the discretion of the attending cardiologist. Sheath removal was performed when the activated clotting time was less than 175 seconds unless a closure device was used. […] The occurrence of 3 major bleeding episodes (as defined by the American College of Cardiology Task force (Cannon et al. J. Am. Coll. Cardiol. (2001) vol. 38 pp. 2114-30) in each panel was a pre-specified criteria for termination of the study."}, "[2]": {"test_system": "capacity of platelets to bind fibrinogen", "details": "25 μg/kg (high) bolus compared with 20 μg/kg bolus; 1 μM adenosine diphosphate; flow cytometry", "protocol": "Blood was obtained after 5 minutes for analysis by flow cytometry. […] Blood for flow cytometry was anticoagulated with corn trypsin inhibitor, a specific inhibitor of coagulation factor XIIa without effect on other coagulation factors (Schneider et al., Circulation (1997) vol. 96 pp. 2877-83). […] For flow cytometry, samples were processed and platelets were fixed at each site. […] Light transmission aggregometry and rapid platelet function analyzer were performed with […] -chloromethyl ketone as the anticoagulant and flow cytometry was performed with blood anticoagulated with corn trypsin inhibitor."}, "platelet aggregation [3]": {"test_system": "platelet aggregation", "details": "patients, 15 through 60 minutes, 20 μM adenosine diphosphate, monohydrochloride", "description": "Patients were treated with a 20 μg/kg bolus of tirofiban hydrochloride followed by a 0.15 μg/kg/min infusion for 18-24 hours or a 25 μg/kg bolus followed by the same infusion. Enrollment of subjects in the panel with the 20 μg/kg bolus (n=15/panel) was completed and the clinical effects and pharmacodynamic properties were evaluated before subjects were enrolled in the panel with the 25 μg/kg bolus. Patients were treated with aspirin (325 mg before the procedure and daily) and unfractionated heparin (target activated clotting time 250 seconds). Clopidogrel (300 mg and then 75 mg daily)(commercially available as PLAVIX®) was administered at least 45 minutes after the start of tirofiban hydrochloride. All other medications were administered at the discretion of the attending cardiologist. Sheath removal was performed when the activated clotting time was less than 175 seconds unless a closure device was used."}, "platelet aggregation [4]": {"test_system": "platelet aggregation", "details": "patients; 10 μg/kg bolus followed by 0.15 μg/kg/min infusion; 15 to 60 minutes after bolus; monohydrochloride; cited from earlier work"}}, "note": "Counter-ions that a name gives are not always drawn. Like-named read-outs stand apart in the source and are kept apart here.", "data": [{"smiles": "CCCCS(=O)(=O)N[C@@H](Cc1ccc(OCCCCC2CCNCC2)cc1)C(=O)O", "note": "[tirofiban hydrochloride, N-(butylsulfonyl)-O-[4-(4-piperidinyl)butyl]-L-tyrosine monohydrochloride]", "values": [{"measurement": "undesirable side effects", "setting": "[1]; about 25 μg/kg bolus compared with conventional bolus", "value": "absence of increased undesirable side effects"}, {"measurement": "major bleeding episodes", "setting": "[1]; 20 μg/kg bolus followed by 0.15 μg/kg/min infusion for 18-24 hours", "value": "No major bleeding episode occurred"}, {"measurement": "major bleeding episodes", "setting": "[1]; 25 μg/kg bolus followed by 0.15 μg/kg/min infusion for 18-24 hours", "value": "No major bleeding episode occurred"}, {"measurement": "extent of inhibition of the capacity to bind fibrinogen", "setting": "[2]", "value": "greater"}, {"measurement": "average extent of inhibition of platelet aggregation / % Inhibition of platelet aggregation 15-60 minutes after bolus injection", "setting": "platelet aggregation [3]; 20 μg/kg bolus followed by 0.15 μg/kg/min infusion", "value": "84-89%"}, {"measurement": "average extent of inhibition of platelet aggregation / % Inhibition of platelet aggregation 15-60 minutes after bolus injection", "setting": "platelet aggregation [3]; 25 μg/kg bolus followed by 0.15 μg/kg/min infusion, listed as tirofiban", "value": "92-95%"}, {"measurement": "average extent of inhibition of platelet aggregation / % Inhibition of platelet aggregation 15-60 minutes after bolus injection", "setting": "platelet aggregation [3]; 25 μg/kg bolus followed by 0.15 μg/kg/min infusion", "value": "greater than 90%"}, {"measurement": "average inhibition of maximal aggregation / % Inhibition of platelet aggregation 15-60 minutes after bolus injection", "setting": "platelet aggregation [4]", "value": "61-66%"}]}]}
